Test systems include A498 renal; DU-145 prostate; HOP-92 NSCLC; HT29 colon; NCI-H226 lung; NCI-H23 lung; NCI-H522 lung; SK-MEL-28 melanoma; SW-620 colon; TK-10 renal.
Holding throughout (assay): growth of human tumour cells (NCI), 48 h

“And” between values parts separate entries of the source, which are not always exact repeats. Equal values may be shown once.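 Cultured in 96-well plates, cells were exposed to test compound for 48 hours across five concentrations. At the GI50, growth is halved. TGI is the concentration that stops growth completely.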

In the case of `COc1cc(-c2ncn(/C=C\C(=O)OC(C)C)n2)cc(C(F)(F)F)c1`, the GI50 in the assay on A498 renal was 36.4 nM and < 14.4 nM; with DU-145 prostate it was 238 nM and 200 nM; with HOP-92 NSCLC, 303 nM and 103 nM; in the assay on HT29 colon, 47.4 nM and 89.6 nM; with NCI-H226 lung it was 16.4 nM and 31 nM; with NCI-H23 lung, 66.3 nM and 103 nM. Also, the GI50 is 28.6 nM and 53.5 nM in the assay on NCI-H522 lung; 46.1 nM and 69.3 nM with SK-MEL-28 melanoma; 36.8 nM and 44.1 nM in the assay with SW-620 colon; 271 nM and 123 nM in the assay on TK-10 renal. Besides, the TGI in the assay with A498 renal is 673 nM and 91.6 nM; in the assay with DU-145 prostate, 12500 nM and 11700 nM; in the assay on HOP-92 NSCLC, 4960 nM and 5680 nM; with HT29 colon it was 12300 nM and 3010 nM; in the assay with NCI-H226 lung, 640 nM and 1660 nM; in the assay on NCI-H23 lung, 14100 nM and 12100 nM. Moreover, the TGI with NCI-H522 lung was 734 nM and 597 nM; in the assay with SK-MEL-28 melanoma, 2240 nM and 8580 nM; with SW-620 colon it was 6580 nM and 5380 nM; in the assay with TK-10 renal, 6910 nM and 5420 nM.
On to `COc1ccc(OC)c(-c2cc(=O)c3c(OC)c(OC)c(OC)c(OC)c3o2)c1`, for which the TGI was greater than 100000 nM in the assay with A498 renal; greater than 100000 nM in the assay with DU-145 prostate; 57700 nM with HOP-92 NSCLC; greater than 100000 nM in the assay with HT29 colon; 77800 nM with NCI-H226 lung; greater than 100000 nM with NCI-H23 lung. The TGI is 46400 nM in the assay on NCI-H522 lung, greater than 100000 nM in the assay with SK-MEL-28 melanoma, greater than 100000 nM in the assay with SW-620 colon and greater than 100000 nM with TK-10 renal.
Regarding `CC[C@@]1(O)C(=O)OCc2c1cc1n(c2=O)Cc2c-1nc1cc3c(cc1c2C)OCO3`, the GI50 is 0.257 nM in the assay with A498 renal; less than 0.1 nM in the assay with DU-145 prostate; less than 0.1 nM in the assay on HT29 colon; less than 0.1 nM in the assay with NCI-H226 lung; less than 0.1 nM in the assay with NCI-H23 lung; 0.159 nM in the assay with NCI-H522 lung. Further, the GI50 in the assay on SK-MEL-28 melanoma is 39.5 nM and 76.5 nM; with SW-620 colon it was less than 0.1 nM; in the assay on TK-10 renal, 43 nM and 31.1 nM. Besides, the TGI with A498 renal was 27.2 nM and 28.5 nM; in the assay with DU-145 prostate, greater than 100000 nM; in the assay on HOP-92 NSCLC, 78.2 nM; with HT29 colon, greater than 100000 nM; with NCI-H226 lung, 19.5 nM; in the assay on NCI-H23 lung it was 105 nM and 11.6 nM. The TGI with SK-MEL-28 melanoma is greater than 100000 nM; with SW-620 colon, greater than 100000 nM; in the assay on TK-10 renal it was 3560 nM.
`CCc1cc2c(cc1N1CCC(N3CCOCC3)CC1)C(C)(C)c1[nH]c3cc(C#N)ccc3c1C2=O`: the GI50 in the assay on A498 renal is 817 nM and 867 nM and 1590 nM; with DU-145 prostate, 1670 nM and 1460 nM and 1950 nM; with HOP-92 NSCLC, 386 nM and 179 nM and 576 nM; with HT29 colon, 758 nM and 853 nM and 1510 nM; with NCI-H226 lung, 1750 nM and 1630 nM and 1610 nM; in the assay with NCI-H23 lung, 2800 nM and 3450 nM and 5940 nM. In addition, the GI50 in the assay on NCI-H522 lung is 1170 nM and 1690 nM and 1480 nM; in the assay with SK-MEL-28 melanoma, 1950 nM and 1870 nM and 2320 nM; with SW-620 colon, 924 nM and 1260 nM and 1080 nM; in the assay on TK-10 renal, 1660 nM and 1710 nM and 1420 nM. For the same compound, the TGI with A498 renal was 4020 nM and 4950 nM and > 10000 nM; in the assay on DU-145 prostate, 5960 nM and 3520 nM and 7190 nM; with HOP-92 NSCLC, 3540 nM and 1230 nM and 4840 nM; with HT29 colon, 2540 nM and 3420 nM and > 10000 nM; with NCI-H226 lung, 4320 nM and 3970 nM and 5190 nM; in the assay on NCI-H23 lung, 38600 nM and 20000 nM and > 10000 nM. Moreover, the TGI is 3810 nM and 4880 nM and 5850 nM in the assay on NCI-H522 lung; 4480 nM and 4040 nM and 6750 nM in the assay on SK-MEL-28 melanoma; > 21800 nM and 22000 nM and > 10000 nM in the assay on SW-620 colon; 3610 nM and 3950 nM and 3050 nM in the assay on TK-10 renal.
Consider `COc1cc(O)c2c(c1)C(=O)c1cc3c(c(O)c1C2=O)C(OC1OC(C)C(O)C(O)C1OC)C(OC)C(C)(O)C3=O` (stereo unspecified), for which the GI50 was 1580 nM in the assay with A498 renal; 3110 nM with DU-145 prostate; 2000 nM in the assay on HOP-92 NSCLC; 2440 nM in the assay with HT29 colon; 2220 nM in the assay on NCI-H226 lung; 2360 nM in the assay on NCI-H23 lung. In addition, the GI50 in the assay with NCI-H522 lung was 2180 nM; in the assay with SK-MEL-28 melanoma, 2240 nM and 1740 nM; with SW-620 colon, 2300 nM; in the assay on TK-10 renal, 4290 nM. The TGI with A498 renal is 3130 nM and 5310 nM; in the assay with DU-145 prostate, 11500 nM; in the assay with HOP-92 NSCLC it was 8490 nM and 1810 nM; with HT29 colon, 11800 nM and 8610 nM; in the assay with NCI-H226 lung, 4820 nM and 9030 nM; in the assay with NCI-H23 lung, 6030 nM and 8080 nM. In addition, the TGI with NCI-H522 lung is 6700 nM and 9450 nM; with SK-MEL-28 melanoma, 5970 nM and 5400 nM; in the assay on SW-620 colon it was 8380 nM and 5410 nM; in the assay with TK-10 renal, 61400 nM.
With `CCCCCCCCCCCCCCCCOP(=O)(O)OP(=O)(O)OCC1OC(n2ccc(N)nc2=O)C(O)C1O` (stereo unspecified), the GI50 in the assay on A498 renal was greater than 100000 nM; in the assay with NCI-H23 lung it was > 100000 nM and 38000 nM; in the assay on NCI-H522 lung, greater than 100000 nM. In addition, the TGI with A498 renal, with DU-145 prostate, in the assay on HOP-92 NSCLC, with HT29 colon, in the assay on NCI-H226 lung and in the assay with NCI-H23 lung was greater than 100000 nM throughout. For the same compound, the TGI in the assay with NCI-H522 lung, in the assay on SK-MEL-28 melanoma, with SW-620 colon and with TK-10 renal was greater than 100000 nM in each case.
As to `CC/C(=C(/c1ccc(O)cc1)c1ccc(OCCN2CCCCC2)cc1)c1ccc(OC)cc1`, the GI50 in the assay with A498 renal was 4290 nM; in the assay with DU-145 prostate it was 4520 nM; in the assay on HOP-92 NSCLC, 665 nM; with HT29 colon it was 1210 nM; in the assay on NCI-H226 lung, 16800 nM; in the assay on NCI-H23 lung it was 10100 nM. The GI50 in the assay on NCI-H522 lung was 3410 nM; with SK-MEL-28 melanoma it was 1780 nM; in the assay on SW-620 colon, 1770 nM; in the assay on TK-10 renal it was 14700 nM. Also, the TGI with A498 renal came to 17600 nM; in the assay with DU-145 prostate, 18100 nM; in the assay with HOP-92 NSCLC, 2380 nM; with HT29 colon, 3670 nM; in the assay on NCI-H226 lung, 37900 nM; in the assay with NCI-H23 lung, 23400 nM. For the same compound, the TGI with NCI-H522 lung is 13700 nM; in the assay on SK-MEL-28 melanoma, 3480 nM; with SW-620 colon it was 3890 nM; in the assay with TK-10 renal, 29200 nM.
Consider `C[C@H]1[C@H]2[C@H]3CC[C@@H]4[C@@]5(C)C/C(=C/c6cccnc6)C(=O)C(C)(C)[C@@H]5CC[C@@]4(C)[C@]3(C)CC[C@]23CO[C@]1(C)[C@@H](C(=O)/C=C\c1cccnc1)C3`, for which the GI50 in the assay with A498 renal is 661 nM; with DU-145 prostate, 923 nM; with HOP-92 NSCLC, 844 nM; with HT29 colon, 1160 nM; in the assay with NCI-H226 lung it was 970 nM; with NCI-H23 lung it was 1030 nM. Also, the GI50 was 1150 nM in the assay on NCI-H522 lung, 1020 nM with SK-MEL-28 melanoma, 1020 nM in the assay with SW-620 colon and 1720 nM in the assay on TK-10 renal. Moreover, the TGI in the assay with A498 renal was found to be 1540 nM; in the assay with DU-145 prostate it was 1710 nM; with HOP-92 NSCLC, 3110 nM; in the assay with HT29 colon it was 3730 nM; with NCI-H226 lung it was 2100 nM; in the assay on NCI-H23 lung, 2480 nM. For the same compound, the TGI worked out at 3070 nM with NCI-H522 lung, 2200 nM in the assay on SK-MEL-28 melanoma, 2510 nM in the assay on SW-620 colon and 8210 nM in the assay on TK-10 renal.

The values are drawn from PubChem BioAssay (NCI).
